Tests used:
[1] = Aqueous stability of artemisinin in presence of additives (1H NMR); assay type: physicochemical; settings: 93° C. for 90 minutes
Method: Two solvents were tested, tap water and premade black coffee, and glucose (1 equivalent) was tested as a reductant. All mixtures were heated to 93° C. for 90 minutes in 10 mL glass vials open to the atmosphere. Halfway through heating, 1-2 mL of tap water was added to compensate for evaporation. Following heating, 2 mL ethyl acetate was added, and the biphasic solution was dried using a rotary evaporator with water bath at 40° C. The flask was further dried for three hours under high vacuum. All samples were dissolved in CDCl3 containing 0.5 equivalents of an internal standard (1,2,4,5-tetramethylbenzene) and ^1H NMR performed.

SARS-CoV-2 [2] = experiment: Pretreatment screening, SARS-CoV-2 plaque numbers on Vero E6 cells; assay type: cell-based
SARS-CoV-2 [3] = experiment: SARS-CoV-2 induced cytopathic effect (CPE) in Vero E6 cells, MTS method; assay type: cell-based; settings: 72 h

C[C@@H]1CC[C@H]2[C@@H](C)C(=O)O[C@@H]3O[C@@]4(C)CC[C@@H]1[C@]32OO4 [artemisinin]
loss of artemisinin ([1]; premade black coffee + glucose (1 equivalent)): 19% | degradation of artemisinin ([1]; premade black coffee): 17% | loss of artemisinin ([1]; tap water + glucose (1 equivalent)): 32% | # of Plaques (SARS-CoV-2 [2]; pretreatment 15 min, dilution 100): 78 | # of Plaques (SARS-CoV-2 [2]; pretreatment 15 min, dilution 1,000): 104 | # of Plaques (SARS-CoV-2 [2]; pretreatment 15 min, dilution 10,000): 109 | plaques observed divided by average of negative control multiplied by 100 (SARS-CoV-2 [2]; pretreatment 15 min, sample 0.22 μg/mL): 95.63 | plaques observed divided by average of negative control multiplied by 100 (SARS-CoV-2 [2]; pretreatment 15 min, sample 2.2 μg/mL): 84.06 | plaques observed divided by average of negative control multiplied by 100 (SARS-CoV-2 [2]; pretreatment 15 min, sample 22 μg/mL): 80.21 | plaques observed divided by average of negative control multiplied by 100 (SARS-CoV-2 [2]; pretreatment 15 min, sample 220 μg/mL): 60.15 | # of Plaques (SARS-CoV-2 [2]; pretreatment 30 min, dilution 100): 88 | # of Plaques (SARS-CoV-2 [2]; pretreatment 30 min, dilution 1,000): 100 | # of Plaques (SARS-CoV-2 [2]; pretreatment 30 min, dilution 10,000): 102 | plaques observed divided by average of negative control multiplied by 100 (SARS-CoV-2 [2]; pretreatment 30 min, sample 0.22 μg/mL): 104.88 | plaques observed divided by average of negative control multiplied by 100 (SARS-CoV-2 [2]; pretreatment 30 min, sample 2.2 μg/mL): 78.66 | plaques observed divided by average of negative control multiplied by 100 (SARS-CoV-2 [2]; pretreatment 30 min, sample 22 μg/mL): 78.66 | plaques observed divided by average of negative control multiplied by 100 (SARS-CoV-2 [2]; pretreatment 30 min, sample 220 μg/mL): 67.87 | # of Plaques (SARS-CoV-2 [2]; pretreatment 60 min, dilution 100): 96 | # of Plaques (SARS-CoV-2 [2]; pretreatment 60 min, dilution 1,000): 120 | # of Plaques (SARS-CoV-2 [2]; pretreatment 60 min, dilution 10,000): 100 | plaques observed divided by average of negative control multiplied by 100 (SARS-CoV-2 [2]; pretreatment 60 min, sample 0.22 μg/mL): 95.63 | plaques observed divided by average of negative control multiplied by 100 (SARS-CoV-2 [2]; pretreatment 60 min, sample 2.2 μg/mL): 77.12 | plaques observed divided by average of negative control multiplied by 100 (SARS-CoV-2 [2]; pretreatment 60 min, sample 22 μg/mL): 92.54 | plaques observed divided by average of negative control multiplied by 100 (SARS-CoV-2 [2]; pretreatment 60 min, sample 220 μg/mL): 74.04 | # of Plaques (SARS-CoV-2 [2]; pretreatment 120 min, dilution 100): 106 | plaques observed divided by average of negative control multiplied by 100 (SARS-CoV-2 [2]; pretreatment 120 min, sample 0.22 μg/mL): 103.34 | plaques observed divided by average of negative control multiplied by 100 (SARS-CoV-2 [2]; pretreatment 120 min, sample 2.2 μg/mL): 95.63 | plaques observed divided by average of negative control multiplied by 100 (SARS-CoV-2 [2]; pretreatment 120 min, sample 22 μg/mL): 103.34 | plaques observed divided by average of negative control multiplied by 100 (SARS-CoV-2 [2]; pretreatment 120 min, sample 220 μg/mL): 81.75

C[C@H]1[C@H](OC(=O)CCC(=O)O)O[C@@H]2O[C@@]3(C)CC[C@H]4[C@H](C)CC[C@@H]1[C@@]24OO3 [artesunate]
EC50 (inhibition of virus-induced CPE) (SARS-CoV-2 [3]): sufficiently low

Reference: patent US20210292296A1, “1,2,4-Trioxane compounds and compositions comprising the same for use in the treatment of COVID-19” (priority 2020, published 2021)
